Entries after “also recorded” stand apart in the source; their conditions may differ. Peptide text beside a SMILES is read from it. * marks the point of attachment. βNA = c1ccc2cc(N*)ccc2c1
Legend:
[1] = tested on: [^3 H]Leu-Leu-OMe uptake by PBL (facilitated transport); experiment: Competitive inhibition of [3H]Leu-Leu-OMe uptake; type: cell-based, human; conditions: for inhibition at 250 µM: Homo sapiens, unlabeled compound 250 microM
Protocol: Human peripheral blood lymphocytes (PBL) were incubated in the presence of [^3 H]labeled Leu-Leu-OMe at 22° C. for varying lengths of time. The incubation mixture was then centrifuged through silicone oil to separate the cells from any unbound or non-internalized [^3 HLeu-Leu-OMe. […] At 37° C., levels of [^3 H]Leu-Leu-OMe accumulation by PBL were increased above those seen at 22° C. (see Table 4).

[2] = tested on: natural killer cells (NK); experiment: NK function: lysis of K562 target cells (51Cr release) after preincubation of lymphocytes with compound; conditions: for NK Toxicity (LD50): concentration which results in 50% loss of human NK function, PBL 15 minutes at 22° C.; for NK toxicity / effect on NK function, in words: lymphocytes exposed 15 minutes at room temperature (FIG. 4, FIG. 5); for effect of unesterified dipeptides on NK cell survival or lytic activity: up to 5×10^-3 M; for prevention of Leu-OMe ablation of NK activity / permanent effect on NK function: PBM; for prevention of Leu-OMe ablation of NK activity: 5 mM Leu-OMe with lysosomal inhibitor (FIG. 1); for permanent effect on NK function: agent alone, washed, 18 hours culture, E:T 40:1 (FIG. 1); for NK Function % Specific Cytotoxicity: Nil 50.8 (Table 2)
Protocol: PBM were separated from heparinized venous blood of healthy donors by centrifugation over sodium diatrizoate-Ficoll gradients (Isolymph, Gallard-Schlesinger Chemical Mfg. Corp., Carle Place, N.Y.).
All cell exposures to the amino acids, dipeptides or their methyl esters were carried out by suspending cells in Dulbecco's phosphate buffered saline (PBS) and incubating them at room temperature with the reagent at the indicated concentration and time interval.
Percent of control cytotoxicity was calculated using the formula: [formula]

[3] = tested on: human erythrocytes (RBC); experiment: 51Cr release from RBC incubated with peptide ester alone; type: cell-based; conditions: for ^51 Cr Release from RBC: Nil 410 + 12
Protocol: The following experiments were carried out to determine whether DPPI could generate a lytic product from Leu-Leu-OMe. In the experiment detailed in FIG. 12, ^51 Cr-labeled human erythrocytes (RBC) were incubated with varying concentrations of Leu-Leu-OMe alone or in the presence of purified bovine DPPI.

[4] = [3H]Leu-Leu-OMe 10 microM (Table 6)
[5] = [3H]Leu-Leu-OMe 10 microM (Table 5)
[6] = 250 micro-M, Nil 40.8 (Table 16)

COC(=O)[C@H](CC(C)C)NC(=O)[C@@H](N)CO [Ser-Leu-OMe] (H-Ser-Leu-OMe)
competitive inhibition of [3H]Leu-Leu-OMe uptake, in words [1]: excellent competitive inhibitors of [^3 H]Leu-Leu-OMe uptake
inhibition at 250 µM [1, 4]: 94%
NK Toxicity (LD50) [2]: > 250 micro-M
NK toxicity / effect on NK function, in words [2]: no observed NK inhibitory effects; also recorded: little or no toxicity for NK cells

COC(=O)[C@H](CC(C)C)NC(=O)[C@@H](N)CCCCN [Lys-Leu-OMe] (H-Lys-Leu-OMe)
NK toxicity / effect on NK function, in words [2]: no observed NK inhibitory effects

COC(=O)CNC(=O)[C@@H](N)CC(C)C [Leu-Gly-OMe] (H-Leu-Gly-OMe)
NK toxicity / effect on NK function, in words [2]: greatly reduced NK toxicity

COC(=O)[C@@H](NC(=O)[C@@H](N)C(C)C)C(C)C [Val-Val-OMe] (H-Val-Val-OMe)
NK toxicity / effect on NK function, in words [2]: less active than either Leu-Val-OMe or Val-Leu-OMe

COC(=O)[C@@H](NC(=O)[C@@H](N)Cc1ccccc1)C(C)C [Phe-Val-OMe] (H-Phe-Val-OMe)
NK toxicity / effect on NK function, in words [2]: markedly less active than Val-Phe-OMe

CC(C)C[C@H](NC(=O)[C@@H](N)C(C)C)C(=O)O [Val-Leu, L-valyl L-leucine, reference compound] (H-Val-Leu-OH)
effect of unesterified dipeptides on NK cell survival or lytic activity [2]: had no effect on NK cell survival or lytic activity

COC(=O)[C@H](CC(C)C)NC(=O)[C@H](CC(C)C)NC(=O)[C@@H](N)CC(C)C [Leu-Leu-Leu-OMe] (H-Leu-Leu-Leu-OMe)
competitive inhibition of [3H]Leu-Leu-OMe uptake, in words [1]: do not competitively inhibit PBL uptake of L-Leu-L-Leu-OMe
inhibition at 250 µM [1, 5]: 6%
concentration required for effect equivalent to Leu-Leu-OMe ([2]; MP-depleted lymphocytes (FIG. 4)): 5 fold
NK toxicity / effect on NK function, in words [2]: caused dose-dependent loss of NK function

CC(C)C[C@H](NC(=O)[C@@H](N)CC(C)C)C(N)=O [Leu-Leu-NH2]
competitive inhibition of [3H]Leu-Leu-OMe uptake, in words [1]: do not competitively inhibit PBL uptake of L-Leu-L-Leu-OMe
inhibition at 250 µM [1, 5]: 8%
NK Function % Specific Lysis K562 ([2]; 1.00 micro-M, Nil 66 (Table 14)): 66%
NK Function % Specific Lysis K562 ([2]; 250.00 micro-M, Nil 66 (Table 14)): 71%
NK toxicity / effect on NK function, in words [2]: no discernible toxicity for NK Cells

COC(=O)[C@H](CC(C)C)NC(=O)[C@H](CC(C)C)NC(=O)[C@H](CC(C)C)NC(=O)[C@H](CC(C)C)NC(=O)[C@H](CC(C)C)NC(=O)[C@@H](N)CC(C)C [LLLLLLOMe] (H-LLLLLL-OMe)
^51 Cr Release from RBC ([3]; 20 micro-M): 698 + 137
^51 Cr Release from RBC ([3]; 100 micro-M): 6,129 + 400
^51 Cr Release from RBC ([3]; 500 micro-M): 3,531 + 101
damage to RBC by compound alone, in words ([3]; no DPPI): Disruption of erythrocyte membranes was observed

COC(=O)[C@H](CC(C)C)NC(=O)[C@H](CC(C)C)NC(=O)[C@H](CC(C)C)NC(=O)[C@@H](N)CC(C)C [LLLLOMe] (H-LLLL-OMe)
^51 Cr Release from RBC ([3]; 100 micro-M): 425 + 24
^51 Cr Release from RBC ([3]; 500 micro-M): 457 + 41

zinc [reference compound]
effect on Leu-Leu-OMe mediated NK toxicity ([2]; added with Leu-Leu-OMe): appeared to inhibit this Leu-Leu-OMe toxicity

NCC(=O)N[C@@H](Cc1ccccc1)C(=O)Nc1ccc2ccccc2c1 [Gly-Phe-beta-naphthylamide, glycyl L-phenylalanyl beta napthylamide] (H-Gly-Phe-βNA)
competitive inhibition of [3H]Leu-Leu-OMe uptake, in words [1]: competitively inhibits [^3 H]Leu-Leu-OMe uptake by lymphocytes
NK Function % Specific Lysis K562 ([2]; 1 micro-M, Nil 40.8 (Table 16)): 52.5%
NK Function % Specific Lysis K562 ([2]; 5 micro-M, Nil 40.8 (Table 16)): 1.2%
NK Function % Specific Lysis K562 ([2]; 20 micro-M, Nil 40.8 (Table 16)): 0.6%
NK toxicity / effect on NK function, in words [2]: a very potent NK toxin

COC(=O)[C@H](CC(C)C)NC(=O)[C@@H]1CCCN1 [Pro-Leu-OMe] (H-Pro-Leu-OMe)
competitive inhibition of [3H]Leu-Leu-OMe uptake, in words [1]: not competitively inhibited
inhibition at 250 µM [1, 4]: -18%
NK Toxicity (LD50) [2]: > 250 micro-M
NK toxicity / effect on NK function, in words [2]: exhibit no NK toxicity

COC(=O)[C@H](CC(C)C)NC(=O)[C@@H](N)C(C)C [Val-Leu-OMe] (H-Val-Leu-OMe)
NK toxicity / effect on NK function, in words [2]: produced concentration-dependent ablation of NK function at concentrations comparable to those at which Leu-Leu-OMe was active

CC(C)C[C@H](NC(=O)[C@@H](N)Cc1ccccc1)C(=O)O [Phe-Leu, L-phenylalanyl L-leucine, reference compound] (H-Phe-Leu-OH)
effect of unesterified dipeptides on NK cell survival or lytic activity [2]: had no effect on NK cell survival or lytic activity

CC(C)C[C@H](NC(=O)[C@@H](N)CC(C)C)C(=O)OCc1ccccc1 [Leu-Leu-OBenzyl, L-leucyl-L-leucyl benzyl ester]
competitive inhibition of [3H]Leu-Leu-OMe uptake, in words [1]: competitively inhibited
inhibition at 250 µM [1, 5]: 87%
potency relative to Leu-Leu-OMe in depleting human PBL of cytotoxic lymphocytes [2]: greater than twofold more potent than Leu-Leu-OMe
NK Function % Specific Lysis K562 ([2]; 6.25 micro-M during preincubation, Nil 66 (Table 14)): 62%
NK Function % Specific Lysis K562 ([2]; 12.50 micro-M, Nil 66 (Table 14)): < 1%
NK Function % Specific Lysis K562 ([2]; 25.00 micro-M, Nil 66 (Table 14)): 1%
NK toxicity / effect on NK function, in words [2]: ablates human NK activity

COC(=O)[C@H](CC(C)C)NC(=O)[C@@H](N)Cc1ccccc1 [Phe-Leu-OMe] (H-Phe-Leu-OMe)
NK toxicity / effect on NK function, in words [2]: produced concentration-dependent ablation of NK function at concentrations comparable to those at which Leu-Leu-OMe was active

COC(=O)[C@H](CC(C)C)NC(=O)[C@@H](N)CC(=O)O [Asp-Leu-OMe] (H-Asp-Leu-OMe)
competitive inhibition of [3H]Leu-Leu-OMe uptake, in words [1]: not competitively inhibited
NK toxicity / effect on NK function, in words [2]: exhibit no NK toxicity

CC(C)[C@H](N)C(=O)N[C@@H](Cc1ccccc1)C(=O)O [Val-Phe, L-valyl L-phenylalanine, reference compound] (H-Val-Phe-OH)
effect of unesterified dipeptides on NK cell survival or lytic activity [2]: had no effect on NK cell survival or lytic activity

CC[C@H](C)[C@H](N)C(=O)OC [Ile-OMe, reference compound]
prevention of Leu-OMe ablation of NK activity [2]: largely prevented
permanent effect on NK function [2]: neither chloroquine, NH4 Cl, nor Ile-OMe had any substantial permanent effect on NK function

COC(=O)[C@H](CCCNC(=N)N)NC(=O)[C@@H](N)CC(C)C [Leu-Arg-OMe]
NK toxicity / effect on NK function, in words [2]: no observed NK inhibitory effects

CC(C)C[C@H](N)C(=O)N[C@@H](Cc1ccccc1)C(=O)O [Leu-Phe, L-leucyl L-phenylalanine, reference compound] (H-Leu-Phe-OH)
effect of unesterified dipeptides on NK cell survival or lytic activity [2]: had no effect on NK cell survival or lytic activity

COC(=O)[C@H](CC(C)C)NC(=O)[C@H](C)N [Ala-Leu-OMe] (H-Ala-Leu-OMe)
NK toxicity / effect on NK function, in words [2]: had no NK inhibitory effects

COC(=O)[C@H](Cc1ccc(O)cc1)NC(=O)[C@@H](N)CC(C)C [Leu-Tyr-OMe] (H-Leu-Tyr-OMe)
competitive inhibition of [3H]Leu-Leu-OMe uptake, in words [1]: excellent competitive inhibitors of [^3 H]Leu-Leu-OMe uptake
inhibition at 250 µM [1, 4]: 86%
NK Toxicity (LD50) [2]: > 250 micro-M
NK toxicity / effect on NK function, in words [2]: no observed NK inhibitory effects; also recorded: little or no toxicity for NK cells

COC(=O)[C@H](Cc1ccccc1)NC(=O)[C@@H](N)CC(=O)O [Asp-Phe-OMe, aspartyl phenylalanine methyl ester] (H-Asp-Phe-OMe)
inhibition at 250 µM [1, 4]: 8%
NK Toxicity (LD50) [2]: > 250 micro-M
NK toxicity / effect on NK function, in words [2]: no observed NK inhibitory effects
NK Function % Specific Cytotoxicity ([2]; preincubation 100 micromolar): 54.2%
NK Function % Specific Cytotoxicity ([2]; preincubation 250 micromolar): 45.7%
NK Function % Specific Cytotoxicity ([2]; preincubation 500 micromolar): 45.7%
NK Function % Specific Cytotoxicity ([2]; preincubation 1000 micromolar): 46.9%

NCC(=O)N[C@@H](Cc1ccccc1)C(N)=O [Gly-Phe-NH2] (H-Gly-Phe-NH2)
NK Function % Specific Lysis K562 [2, 6]: 43.9%
NK toxicity / effect on NK function, in words [2]: has no apparent NK toxic effects

CC(C)C[C@H](N)C(=O)O [Leucine, L-leucine, reference compound]
NK toxicity / effect on NK function, in words [2]: had no irreversible effect on NK function

COC(=O)[C@H](CC(C)C)NC(=O)CN [Gly-Leu-OMe]
NK toxicity / effect on NK function, in words [2]: greatly reduced NK toxicity

COC(=O)[C@H](Cc1ccccc1)NC(=O)[C@@H](N)C(C)C [Val-Phe-OMe] (H-Val-Phe-OMe)
inhibition at 250 µM [1, 4]: 75%
NK Toxicity (LD50) [2]: 24 micro-M
NK toxicity / effect on NK function, in words [2]: produced concentration-dependent ablation of NK function at concentrations comparable to those at which Leu-Leu-OMe was active; also recorded: among the most potent of the NK toxic dipeptide methyl esters

COC(=O)[C@H](Cc1ccccc1)NC(=O)CN [Gly-Phe-OMe] (H-Gly-Phe-OMe)
NK Function % Specific Lysis K562 [2, 6]: 34.5%
NK Function % Specific Lysis K562 ([2]; 500 micro-M, Nil 40.8 (Table 16)): 10.1%
NK toxicity / effect on NK function, in words [2]: a much less potent NK toxin than is Leu-Leu-OMe

Cl.N [NH4 Cl, reference compound]
prevention of Leu-OMe ablation of NK activity [2]: largely prevented
permanent effect on NK function [2]: neither chloroquine, NH4 Cl, nor Ile-OMe had any substantial permanent effect on NK function

Reference: patent publication US5304474A, “Hydrophobic peptide esters and amides” (Board of Regents, The University of Texas System, priority 1991, dated 1994)
